This note sets out measurements from patent US10669284B2, “Fused thiazolopyrimidine derivatives as MNKS inhibitors” (LIFEARC, priority 2015, dated 2020).

Test [1] addresses T1, ULK2 (Homo sapiens, UniProt Q8IYT8).
T1 sequence (Q8IYT8 1-1036): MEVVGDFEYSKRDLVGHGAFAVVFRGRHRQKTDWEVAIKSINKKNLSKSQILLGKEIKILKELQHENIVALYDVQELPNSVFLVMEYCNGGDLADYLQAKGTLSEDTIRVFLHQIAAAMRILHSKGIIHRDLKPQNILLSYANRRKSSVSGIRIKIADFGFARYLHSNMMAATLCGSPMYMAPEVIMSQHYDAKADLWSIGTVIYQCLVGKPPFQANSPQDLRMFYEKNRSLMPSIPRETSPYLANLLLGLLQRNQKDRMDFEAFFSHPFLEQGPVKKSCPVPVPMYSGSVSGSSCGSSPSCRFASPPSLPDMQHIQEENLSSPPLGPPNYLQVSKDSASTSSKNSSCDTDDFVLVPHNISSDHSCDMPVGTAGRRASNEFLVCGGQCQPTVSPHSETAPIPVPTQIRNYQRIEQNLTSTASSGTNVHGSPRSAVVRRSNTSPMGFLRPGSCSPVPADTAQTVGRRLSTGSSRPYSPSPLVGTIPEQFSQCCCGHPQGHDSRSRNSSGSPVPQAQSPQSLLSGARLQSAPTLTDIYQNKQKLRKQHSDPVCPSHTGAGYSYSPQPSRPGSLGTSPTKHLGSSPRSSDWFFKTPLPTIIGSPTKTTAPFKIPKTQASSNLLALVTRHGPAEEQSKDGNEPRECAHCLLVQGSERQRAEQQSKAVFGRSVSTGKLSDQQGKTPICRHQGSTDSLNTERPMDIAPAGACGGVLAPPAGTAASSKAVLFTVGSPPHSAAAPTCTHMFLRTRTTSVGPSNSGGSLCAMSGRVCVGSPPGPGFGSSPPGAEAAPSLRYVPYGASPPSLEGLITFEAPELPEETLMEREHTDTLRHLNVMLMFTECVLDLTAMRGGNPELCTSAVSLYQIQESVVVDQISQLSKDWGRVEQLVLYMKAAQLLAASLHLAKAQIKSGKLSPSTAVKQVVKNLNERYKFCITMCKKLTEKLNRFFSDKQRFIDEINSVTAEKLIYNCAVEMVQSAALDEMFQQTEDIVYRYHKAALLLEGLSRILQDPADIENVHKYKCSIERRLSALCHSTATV
In words: Kinase selectivity screen ULK2. The note with it: read-out: % inhibition of ULK2.

Test [2] has as its target CDK1/CCNB1 (Homo sapiens, UniProt P06493). The experiment in a line: Kinase selectivity screen CDK1/CCNB1. The note with it: read-out: % inhibition of CDK1/CCNB1.
For test [3], the target named is T2, MAP3K7 (Homo sapiens, UniProt O43318).
T2 sequence (O43318 1-303 limits assumed): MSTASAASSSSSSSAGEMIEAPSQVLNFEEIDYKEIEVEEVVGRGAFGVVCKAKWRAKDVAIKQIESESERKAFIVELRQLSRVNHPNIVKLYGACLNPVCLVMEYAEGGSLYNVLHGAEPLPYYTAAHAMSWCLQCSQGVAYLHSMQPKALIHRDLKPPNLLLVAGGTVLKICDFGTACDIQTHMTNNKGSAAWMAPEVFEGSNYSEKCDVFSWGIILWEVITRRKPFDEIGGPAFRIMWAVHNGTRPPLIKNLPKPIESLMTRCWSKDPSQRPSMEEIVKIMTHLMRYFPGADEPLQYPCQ
In words: Kinase selectivity screen MAP3K7. The following applies: read-out: % inhibition of MAP3K7.

The target of test [4] is CAMK2B (Homo sapiens, UniProt Q13554). The experiment in a line: Kinase selectivity screen CAMK2B. The following applies: read-out: % inhibition of CAMK2B.
Chain of CAMK2B (Q13554 whole entry, species assumed): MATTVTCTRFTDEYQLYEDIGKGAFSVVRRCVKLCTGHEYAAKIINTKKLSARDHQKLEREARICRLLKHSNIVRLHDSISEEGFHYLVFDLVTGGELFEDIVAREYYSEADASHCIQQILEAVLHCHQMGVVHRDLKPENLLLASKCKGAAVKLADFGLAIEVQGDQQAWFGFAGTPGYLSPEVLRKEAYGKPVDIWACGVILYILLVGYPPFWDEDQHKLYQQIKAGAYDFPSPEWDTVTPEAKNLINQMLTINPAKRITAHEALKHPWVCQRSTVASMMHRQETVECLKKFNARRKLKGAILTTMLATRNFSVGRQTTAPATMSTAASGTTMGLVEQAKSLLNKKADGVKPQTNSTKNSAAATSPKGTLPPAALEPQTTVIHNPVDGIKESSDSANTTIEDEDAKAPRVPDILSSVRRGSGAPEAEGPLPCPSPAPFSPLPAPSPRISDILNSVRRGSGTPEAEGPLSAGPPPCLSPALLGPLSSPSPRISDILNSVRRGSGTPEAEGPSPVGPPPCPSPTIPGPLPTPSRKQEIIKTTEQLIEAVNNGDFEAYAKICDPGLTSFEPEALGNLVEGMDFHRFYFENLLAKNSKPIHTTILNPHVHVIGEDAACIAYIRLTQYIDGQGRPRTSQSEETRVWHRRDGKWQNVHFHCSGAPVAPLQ
Test [5] addresses PRKCA (Homo sapiens, UniProt P17252). In words: Kinase selectivity screen PRKCA. The following applies: read-out: % inhibition of PRKCA.
Test [6] concerns the target MYLK (Homo sapiens, UniProt Q15746). The experiment in a line: Kinase selectivity screen MYLK. The following applies: read-out: % inhibition of MYLK.
Test [7] concerns the target PIP5K1C (Homo sapiens, UniProt O60331). The experiment in a line: Kinase selectivity screen PIP5K1C. The following applies: read-out: % inhibition of PIP5K1C.
Test [8] concerns the target T3, CHEK1 (Homo sapiens, UniProt O14757).
T3 sequence (O14757 1-476): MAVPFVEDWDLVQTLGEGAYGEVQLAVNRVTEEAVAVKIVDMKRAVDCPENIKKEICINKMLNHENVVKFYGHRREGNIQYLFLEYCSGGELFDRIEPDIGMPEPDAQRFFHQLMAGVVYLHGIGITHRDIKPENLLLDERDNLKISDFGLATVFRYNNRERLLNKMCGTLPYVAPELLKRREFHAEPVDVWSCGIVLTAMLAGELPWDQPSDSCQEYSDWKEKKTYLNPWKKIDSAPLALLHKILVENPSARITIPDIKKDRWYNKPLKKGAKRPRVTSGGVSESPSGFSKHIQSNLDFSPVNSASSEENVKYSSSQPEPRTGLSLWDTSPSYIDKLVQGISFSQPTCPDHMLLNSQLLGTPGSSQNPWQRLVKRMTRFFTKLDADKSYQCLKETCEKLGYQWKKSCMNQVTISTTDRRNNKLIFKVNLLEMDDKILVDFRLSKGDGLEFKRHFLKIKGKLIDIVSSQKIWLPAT
In words: Kinase selectivity screen CHEK1. The note with it: read-out: % inhibition of CHEK1.

The target in test [9] is KIT (Homo sapiens, UniProt P10721). In words: Kinase selectivity screen KIT. The note with it: read-out: % inhibition of KIT.
Test [10] has as its target EPHA5 (Homo sapiens, UniProt P54756). In words: Kinase selectivity screen EPHA5. The following applies: read-out: % inhibition of EPHA5.
The target of test [11] is MAP2K1 (Homo sapiens, UniProt Q02750). In words: Kinase selectivity screen MAP2K1. The following applies: read-out: % inhibition of MAP2K1.
Chain of MAP2K1 (Q02750 whole entry, species assumed): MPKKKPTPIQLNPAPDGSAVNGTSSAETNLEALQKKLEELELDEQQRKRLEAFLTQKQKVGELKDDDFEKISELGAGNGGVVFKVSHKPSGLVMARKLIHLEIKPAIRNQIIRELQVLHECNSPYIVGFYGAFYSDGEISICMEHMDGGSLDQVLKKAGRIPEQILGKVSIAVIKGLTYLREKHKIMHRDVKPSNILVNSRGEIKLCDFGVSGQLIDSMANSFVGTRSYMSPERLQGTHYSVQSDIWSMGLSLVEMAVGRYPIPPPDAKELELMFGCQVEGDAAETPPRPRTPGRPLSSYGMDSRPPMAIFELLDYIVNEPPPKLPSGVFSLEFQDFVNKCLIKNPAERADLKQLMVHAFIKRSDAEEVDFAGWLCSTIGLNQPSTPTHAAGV

Chain of EPHA5 (P54756 25-1037, species assumed): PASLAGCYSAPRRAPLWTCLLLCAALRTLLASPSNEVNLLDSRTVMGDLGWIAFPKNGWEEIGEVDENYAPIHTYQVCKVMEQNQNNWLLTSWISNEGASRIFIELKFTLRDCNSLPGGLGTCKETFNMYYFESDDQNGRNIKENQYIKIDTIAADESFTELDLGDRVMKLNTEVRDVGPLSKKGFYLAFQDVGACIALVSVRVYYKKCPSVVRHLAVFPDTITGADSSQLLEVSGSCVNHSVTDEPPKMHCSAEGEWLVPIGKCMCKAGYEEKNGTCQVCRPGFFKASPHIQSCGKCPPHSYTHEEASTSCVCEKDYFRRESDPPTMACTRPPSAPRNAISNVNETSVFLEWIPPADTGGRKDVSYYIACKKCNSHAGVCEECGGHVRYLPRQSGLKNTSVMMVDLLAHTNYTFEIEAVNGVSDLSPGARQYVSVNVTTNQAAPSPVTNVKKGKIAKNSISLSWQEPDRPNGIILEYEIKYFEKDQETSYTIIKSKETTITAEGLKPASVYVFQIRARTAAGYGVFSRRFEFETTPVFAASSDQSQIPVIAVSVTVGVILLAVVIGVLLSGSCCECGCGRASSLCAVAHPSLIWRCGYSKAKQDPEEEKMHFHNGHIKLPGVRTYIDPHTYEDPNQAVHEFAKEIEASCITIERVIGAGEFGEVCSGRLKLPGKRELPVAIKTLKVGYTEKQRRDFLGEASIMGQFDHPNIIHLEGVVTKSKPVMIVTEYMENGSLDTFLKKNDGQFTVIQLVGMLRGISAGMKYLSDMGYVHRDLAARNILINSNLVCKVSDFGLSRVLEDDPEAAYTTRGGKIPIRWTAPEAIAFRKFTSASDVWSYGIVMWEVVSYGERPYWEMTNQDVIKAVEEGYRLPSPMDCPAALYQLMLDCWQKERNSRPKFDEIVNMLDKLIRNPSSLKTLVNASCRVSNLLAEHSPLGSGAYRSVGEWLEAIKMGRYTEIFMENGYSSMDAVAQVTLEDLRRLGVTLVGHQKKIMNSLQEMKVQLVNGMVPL
Chain of CDK1/CCNB1 (P06493 whole entry, species assumed): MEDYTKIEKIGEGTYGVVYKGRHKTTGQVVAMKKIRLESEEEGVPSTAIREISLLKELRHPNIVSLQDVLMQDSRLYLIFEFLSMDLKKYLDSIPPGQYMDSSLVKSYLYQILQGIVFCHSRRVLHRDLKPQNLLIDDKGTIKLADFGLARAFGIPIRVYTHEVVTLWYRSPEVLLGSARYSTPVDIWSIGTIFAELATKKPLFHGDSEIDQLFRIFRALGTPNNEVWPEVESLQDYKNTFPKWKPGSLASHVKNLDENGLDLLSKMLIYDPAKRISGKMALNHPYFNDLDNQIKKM
Chain of CDK1/CCNB1 (P14635 whole entry partner, species assumed): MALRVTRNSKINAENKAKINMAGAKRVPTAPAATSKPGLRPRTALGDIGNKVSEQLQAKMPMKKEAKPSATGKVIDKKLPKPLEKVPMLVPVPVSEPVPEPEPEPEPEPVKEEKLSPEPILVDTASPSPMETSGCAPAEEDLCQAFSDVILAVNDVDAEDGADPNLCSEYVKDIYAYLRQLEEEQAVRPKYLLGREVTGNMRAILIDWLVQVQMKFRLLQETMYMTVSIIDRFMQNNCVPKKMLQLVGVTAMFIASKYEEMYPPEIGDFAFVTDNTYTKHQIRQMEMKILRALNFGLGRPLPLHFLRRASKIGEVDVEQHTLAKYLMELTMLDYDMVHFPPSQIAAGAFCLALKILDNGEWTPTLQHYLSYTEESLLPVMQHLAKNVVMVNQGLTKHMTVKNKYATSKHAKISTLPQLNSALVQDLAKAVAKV
Chain of PIP5K1C (O60331 whole entry, species assumed): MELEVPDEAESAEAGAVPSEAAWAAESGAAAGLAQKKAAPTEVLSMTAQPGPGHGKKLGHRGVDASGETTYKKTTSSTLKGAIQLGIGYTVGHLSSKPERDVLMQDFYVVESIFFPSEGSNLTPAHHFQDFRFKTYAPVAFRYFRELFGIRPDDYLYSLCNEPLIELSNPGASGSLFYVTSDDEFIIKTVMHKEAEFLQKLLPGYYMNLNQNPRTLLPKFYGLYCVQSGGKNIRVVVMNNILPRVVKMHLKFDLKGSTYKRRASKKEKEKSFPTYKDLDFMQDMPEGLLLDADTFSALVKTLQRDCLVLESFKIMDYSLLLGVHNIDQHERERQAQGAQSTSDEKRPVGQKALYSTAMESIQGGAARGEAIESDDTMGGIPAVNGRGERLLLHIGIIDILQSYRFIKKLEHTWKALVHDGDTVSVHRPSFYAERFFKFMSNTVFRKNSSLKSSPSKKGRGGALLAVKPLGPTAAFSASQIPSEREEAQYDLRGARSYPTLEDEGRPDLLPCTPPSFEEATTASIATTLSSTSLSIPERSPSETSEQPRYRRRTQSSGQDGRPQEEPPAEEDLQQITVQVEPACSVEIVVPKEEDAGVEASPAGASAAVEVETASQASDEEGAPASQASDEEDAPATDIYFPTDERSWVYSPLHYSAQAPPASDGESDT
Chain of MYLK (Q15746 1425-1771): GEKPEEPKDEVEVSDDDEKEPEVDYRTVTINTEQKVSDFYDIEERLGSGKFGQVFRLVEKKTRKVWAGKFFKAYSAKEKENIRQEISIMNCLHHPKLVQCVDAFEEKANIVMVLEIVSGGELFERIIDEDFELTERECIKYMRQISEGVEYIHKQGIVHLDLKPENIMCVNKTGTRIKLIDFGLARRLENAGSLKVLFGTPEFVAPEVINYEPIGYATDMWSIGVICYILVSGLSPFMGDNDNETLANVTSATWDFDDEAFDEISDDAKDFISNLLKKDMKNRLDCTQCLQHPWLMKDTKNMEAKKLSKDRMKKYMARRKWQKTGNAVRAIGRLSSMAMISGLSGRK

As for `O=C(NCC1CCNCC1)c1nc2c(N3CCc4cc(F)ccc43)ncnc2s1` [Example 58, 7-(5-fluoroindolin-1-yl)-N-(4-piperidylmethyl)thiazolo[5,4-d]pyrimidine-2-carboxamide], the inhibition at 1 µM in [1] was 21%; in test [2], 0%; in [3], 14%; in test [4] it was 17%; in [5], 0%; in test [6], 15%. The inhibition at 1 µM in [7] turned out to be 6%; in test [8] it was 6%; in test [9] it was 7%; in [10] it was 0%; in test [11] it was 7%.
On to `CC(C)Oc1cc(F)ccc1Nc1ncnc2sc(C(=O)NCC3CCNCC3)nc12` [Example 10, 7-(4-fluoro-2-isopropoxy-anilino)-N-(4-piperidylmethyl)thiazolo[5,4-d]pyrimidine-2-carboxamide], for which the inhibition at 1 µM in [1] came out at 0%; in test [2], 8%; in test [3] it was 20%; in test [4] it was 2%; in test [5], 8%; in [6] it was 10%. Moreover, the inhibition at 1 µM in test [7] is 6%; in test [8] it was 0%; in [9] it was 0%; in test [10], 11%; in test [11], 0%.
Regarding `CN(C)CCCNC(=O)c1nc2c(N3CCc4cc(F)ccc43)ncnc2s1` [Example 64, N-[3-(dimethylamino)propyl]-7-(5-fluoroindolin-1-yl)thiazolo[5,4-d]pyrimidine-2-carboxamide], the inhibition at 1 µM in test [1] stood at 81%; in test [2] it was 4%; in [3], 0%; in [4], 57%; in test [5], 0%; in [6], 15%. For the same compound, the inhibition at 1 µM in test [7] came out at 3%; in test [8], 35%; in test [9], 0%; in test [10], 0%; in test [11] it was 5%.
